{
  "source": "patent US6369101B1",
  "about": "“Therapeutic method to treat herpes virus infection” (Regents of the University of Minnesota, priority 1999, dated 2002)",
  "key": {"Mouse Cytomegalovirus": {"test_system": "Mouse Cytomegalovirus", "assay": "CPE inhibition in stationary cells (visual), MCMV in MEF cells", "assay_type": "cell-based", "conditions": "test compounds in DMSO, read-out: EC50"}, "[1]": {"assay": "CC50 in HFF cells (Table 3)", "assay_type": "cell-based, human", "conditions": "human, HFF cells, Human Cytomegalovirus section of Table 3; read-out: CC50", "description": "The cells were observed daily for any change in morphology. The rounding and lysis of cells were observed if the compound has cytotoxic effect. At the end of this time, the media-drug solution was removed and the cells washed. […] The cells-media mixture was then pipetted up and down several times to resuspend the cells and 0.2 ml of the cell suspension was added to 9.8 ml of trypan blue and cells were counted using hemocytometer. Each sample was counted three times with three replicate wells per sample."}, "[2]": {"assay": "CC50 in MEF cells (Table 3)", "assay_type": "cell-based", "conditions": "Mouse Cytomegalovirus section of Table 3"}, "Human Cytomegalovirus": {"test_system": "Human Cytomegalovirus", "assay": "CPE inhibition in stationary cells (visual), HCMV in HFF cells", "assay_type": "cell-based", "conditions": "Human betaherpesvirus 5, test compounds in DMSO, read-out: EC50"}, "HSV-2 (strain G)": {"test_system": "HSV-2 (strain G)", "assay": "Plaque reduction assay, HSV-2 strain G in HEp-2 cells", "assay_type": "cell-based, herpes simplex virus type 2", "conditions": "conc. per compound (ng/ml) (Acyclovir 250), HSV-2 virus control 47", "description": "HEp-2 cells were grown to monolayer in 24 well tissue culture plates in DMEM containing 10% fetal calf serum at 37° C. for 24-36 hours in the presence of 5% CO2. The monolayer of HEp-2 cells was infected with 0.1 ml of HSV- 1 (strain F) or HSV-2 (strain G) containing 100 pfu. The viruses were allowed to adsorb for 1 hour at 37° C. in the presence of 5% CO2. All wells containing virus infected cells except virus control were overlaid with 0.9 ml of DMEM and 1 ml of test compound. The virus control and cell control received DMEM only. All microtiter plates were incubated at 37° C. in the presence of 5% CO2 and observed twice daily for 72 hours for viral CPE. At the end of the experiment, plates were stained with 0.1% crystal violet and the results were quantified by counting plaque forming units."}, "[3]": {"assay": "Cytotoxic effect in Vero cell line", "assay_type": "cell-based, African green monkey", "conditions": "African green monkey, Vero cells; Vero cell line", "description": "(§1) Human laryngeal epithelial carcinoma cells (HEp-2, ATCC, Rockville, Md.) were used for testing of antiviral compounds by cytopathic effect (CPE) inhibition and plaque reduction assay. […] HEp-2, African green monkey kidney cells (Vero, ATCC), HFF and primary rabbit kidney cells were used to determine the cytotoxic effect of compounds of formula I. These cells were propagated in Dulbeco's modified Eagle's medium (DMEM) (Sigma, USA) supplemented with 10% inactivated fetal calf serum (FCS), 25 mM HEPES, 0.2% sodium bicarbonate and 1% penicillin/-streptomycin at 37° C. in the presence of 5% CO2.\n(§2) HFF, Vero and HEp-2 cells were seeded in 24-well tissue culture plates at a concentration of […] in DMEM containing 10% FCS and incubated for 24 hours at 37° C. in the presence of 5% CO2. To the monolayer of these cells 0.5, 1.0, 1.5 and 2.0 ml of solution of antiviral compounds were added in the respective wells in duplicate and the cells were then incubated in a 5% CO2 incubator at 37° C. for 72 hours. The cells were observed daily for any change in morphology. […] At the end of this time, the media-drug solution was removed and the cells washed. One ml of 0.25% trypsin was added to each well and incubated until the cells start to come off of the plate. The cells-media mixture was then pipetted up and down several times to resuspend the cells and 0.2 ml of the cell suspension was added to 9.8 ml of trypan blue and cells were counted using hemocytometer. Each sample was counted three times with three replicate wells per sample."}, "Vero cells": {"test_system": "Vero cells", "assay": "Cytotoxic effect in Vero cell line", "assay_type": "cell-based, African green monkey", "conditions": "African green monkey kidney (Vero) cells", "description": "as §1, §2"}, "[4]": {"test_system": "Human laryngeal epithelial carcinoma cells (HEp-2)", "assay": "Cytotoxicity in HEp-2 cells", "assay_type": "cell-based", "description": "as §1, §2"}, "[5]": {"assay": "Cell proliferation assay (cytotoxicity) in HFF cells", "assay_type": "cell-based, human", "conditions": "primary human foreskin fibroblast (HFF) cells; Human foreskin fibroblast cells; reduces growth of uninfected cells by 50%", "description": "as §1, §2"}, "[6]": {"test_system": "Primary human foreskin fibroblast cells (HFF)", "assay": "Cell proliferation assay (cytotoxicity) in HFF cells", "assay_type": "cell-based", "conditions": "HFF cells; solution conc. per compound (ng/ml) (Acyclovir 250); 2.0 ml dose", "description": "as §1, §2"}, "HSV-2 strain G": {"test_system": "HSV-2 strain G", "assay": "CPE inhibition, HSV-2 strain G in HEp-2 cells", "assay_type": "cell-based, herpes simplex virus type 2", "conditions": "conc. per compound (ng/ml)", "excerpt": "(§3) Human laryngeal epithelial carcinoma cells (HEp-2, ATCC, Rockville, Md.) were used for testing of antiviral compounds by cytopathic effect (CPE) inhibition and plaque reduction assay. Primary human foreskin fibroblast cells (HFF) obtained from Dr. E. R. Kern (Department of Pediatrics, University of Alabama Medical School, 309 Bevill Biomedical Research Building, 845 19th Street South, Birmingham, Ala., 35294-2170), were used for cytopathic effect (CPE) inhibition assay. HEp-2, African green monkey kidney cells (Vero, ATCC), HFF and primary rabbit kidney cells were used to determine the cytotoxic effect of compounds of formula I. These cells were propagated in Dulbeco's modified Eagle's medium (DMEM) (Sigma, USA) supplemented with 10% inactivated fetal calf serum (FCS), 25 mM HEPES, 0.2% sodium bicarbonate and 1% penicillin/-streptomycin at 37° C. in the presence of 5% CO2.\n(§4) The antiviral activity of the test compounds was determined against HSV-1 strain F, HSV-2 strain G (ATCC), HSV-1 strain E-377 and HSV-2 strain MS (Dr. E. R. Kern, see above), CMV strain AD 169 (NIH), HCMV (NIH), MCMV (NIH), and VZV strain Ellen (NIH). Highly infective virus stocks of HSV-1 and HSV-2 were prepared by infecting a confluent monolayer of HEp-2 (ATCC) or HFF in 150 cm^2 plastic tissue culture flasks (Falcon, USA) at a multiplicity of infection of 0.5 in DMEM supplemented with 10% inactivated fetal calf serum and 1% penicillin/streptomycin at 37° C. in the presence of 5% CO2. The infected cells were disrupted through three freeze/thaw cycles, and viruses were clarified from large cell debris by low speed centrifugation at 3000 rpm for 10 minutes. The virus suspension was separated, aliquoted and stored at −80° C. until assayed or used for animal infection. The stock HSV-1 (E377) and HSV-2 (MS strain) contained 3.5×10^8 and 1.1×10^7 pfu/ml respectively.\n(§5) Low passage HFF cells were seeded into 96-well tissue culture plates 24 hours prior to use at a cell concentration of 2.5×10^4 cells per ml in 0.2 ml of DMEM supplemented with 10% fetal calf serum. After 24 hours of incubation at 37° C. in the presence of 5% CO2, medium was removed and the test compounds were diluted two-fold in DMEM in the 96-well tissue culture plate containing monolayer. […] For both HSV-1 and HSV-2 assays, the virus concentration utilized was 1000 pfu/ml and for HCMV, MCMV, and VZV assay 2500 pfu/ml were used. The plates were then incubated at 37° C. in the presence of 5% CO2 for two to three days for HSV-1 and HSV-2, 10 days for VZV and 14 days for HCMV and MCMV. The virus induced cytopathic effect (CPE) was monitored microscopically every day. CPE of HSV-1 was recognized by cell rounding and clumping, while HSV-2 formed large syncytia along with rounding and clumping of cells. […] EC50s were estimated from graphical plots of percent CPE against the concentration of the test compounds. The EC50s for each compound are the mean of EC50s for three or more independent experiments. After three days of incubation period, media was aspirated and the cells stained with a 0.1% crystal violet solution for 30 minutes. The stain was then removed and the plates were rinsed with tap water, air dried and retained."}, "HSV-1 strain F": {"test_system": "HSV-1 strain F", "assay": "CPE inhibition, HSV-1 strain F in HEp-2 cells", "assay_type": "cell-based, herpes simplex virus type 1", "conditions": "conc. per compound (ng/ml)", "excerpt": "as §3, §4, §5"}, "HSV-1 strain E-377": {"test_system": "HSV-1 strain E-377", "assay": "CPE inhibition assay, HSV-1 E377 in human foreskin fibroblast cells", "assay_type": "cell-based, herpes simplex virus type 1", "description": "(§6) Stock solutions of the compounds used for the testing of antiviral activity against HSV-1 and HSV-2 were prepared in distilled water, filtered through 0.2 μm filter (Acrodisco®, Gelman Sciences, USA) and stored at room temperature until used.\nas §3, §4, §5"}, "[7]": {"assay": "Cytotoxic effect in primary rabbit kidney cells", "assay_type": "cell-based", "conditions": "primary rabbit kidney cells; Primary Rabbit Kidney cell line", "description": "as §1, §2"}, "[8]": {"test_system": "Primary Rabbit Kidney cells", "assay": "Cytotoxic effect in primary rabbit kidney cells", "assay_type": "cell-based", "conditions": "primary rabbit kidney cells", "description": "as §1, §2"}, "HSV-2 strain MS": {"test_system": "HSV-2 strain MS", "assay": "CPE inhibition assay, HSV-2 MS in human foreskin fibroblast cells", "assay_type": "cell-based, herpes simplex virus type 2", "description": "as §6, §3, §4, §5"}, "[9]": {"conditions": "HFF cells, solution conc. per compound (ng/ml) (Acyclovir 250), 2.0 ml dose"}},
  "note": "“Also recorded” adds a separate entry of the source. For Cytopathic Effect (CPE) Inhibition HSV-1 Strain F in this document: key: +++ = Complete cytopathic effect; ++ = Moderate cytopathic effect; + = Minimum cytopathic effect; − = No cytopathic effect. For Cytopathic Effect (CPE) Inhibition HSV-2 Strain G in this document: key: +++ = Complete cytopathic effect; ++ = Moderate cytopathic effect; + = Minimum cytopathic effect; − = No cytopathic effect. For Qualitative CPE at 2.0 ml dose HSV-1 E377 in this document: key: +++ = Complete cytopathic effect; ++ = Moderate cytopathic effect; + = Minimum cytopathic effect; − = No cytopathic effect. For Qualitative CPE at 2.0 ml dose HSV-2 MS in this document: key: +++ = Complete cytopathic effect; ++ = Moderate cytopathic effect; + = Minimum cytopathic effect; − = No cytopathic effect.",
  "data": [
    {"compound": "Nc1nc(O)c2ncn(COC(CO)CO)c2n1", "note": "[Ganciclovir ®, Ganciclovir, reference compound]", "values": [
      {"measurement": "EC50", "setting": "Mouse Cytomegalovirus", "value": 0.9, "unit": "µg/mL"},
      {"measurement": "CC50 at 72 h", "setting": "[1]", "value": "> 100", "unit": "µg/mL"},
      {"measurement": "CC50", "setting": "[2]", "value": "> 100", "unit": "µg/mL"},
      {"measurement": "EC50", "setting": "Human Cytomegalovirus", "value": 0.1, "unit": "µg/mL"}
    ]},
    {"compound": "CC1(C)CCC23CC[C@]4(C)C(CCC5[C@@]6(C)CCC(O)C(C)(C)C6CC[C@]54C)C2C1OC3", "note": "(stereo partly drawn) [Allobetulin, 3β-hydroxy-19αH-19,28-epoxy-oleanane]", "values": [
      {"measurement": "Plaque Reduction Assay Average pfu/10^5 Cells HSV-2 Strain G", "setting": "HSV-2 (strain G)", "value": 17, "unit": "pfu/10^5 Cells"},
      {"measurement": "CC50 at 72 h", "setting": "[3]", "value": 0.3, "unit": "µg/mL"},
      {"measurement": "cytotoxicity (in words)", "setting": "Vero cells", "value": "generally not toxic"},
      {"measurement": "cytotoxicity (in words)", "setting": "[4]; HEp-2 (human epithelial) cells", "value": "less cytotoxicity; also recorded: generally not toxic"},
      {"measurement": "Cell Cytotoxicity", "setting": "[4]; HEp-2 cells, conc. per compound (ng/ml)", "value": "−"},
      {"measurement": "CC50 at 72 h", "setting": "[5]", "value": 0.3, "unit": "µg/mL"},
      {"measurement": "Qualitative Cytotoxic Effect at 2.0 ml dose", "setting": "[6]", "value": "−"},
      {"measurement": "Cytopathic Effect (CPE) Inhibition HSV-2 Strain G", "setting": "HSV-2 strain G", "value": "++"},
      {"measurement": "Cytopathic Effect (CPE) Inhibition HSV-1 Strain F", "setting": "HSV-1 strain F", "value": "++"},
      {"measurement": "EC50 HSV-1 E377", "setting": "HSV-1 strain E-377; CPE inhibition in HFF cells", "value": 0.3, "unit": "µg/mL"},
      {"measurement": "Qualitative CPE at 2.0 ml dose HSV-1 E377", "setting": "HSV-1 strain E-377; [9]", "value": "+++"},
      {"measurement": "EC50", "setting": "HSV-1 strain E-377; Human alphaherpesvirus 1, HFF, CPE inhibition in HFF cells, read-out: EC50 HSV-1 E377", "value": "~0.3", "unit": "µg/mL"},
      {"measurement": "CC50 at 72 h", "setting": "[7]", "value": "> 0.3", "unit": "µg/mL"},
      {"measurement": "cytotoxicity (in words)", "setting": "[8]", "value": "No cytotoxicity; also recorded: generally not toxic"},
      {"measurement": "EC50 HSV-2 MS", "setting": "HSV-2 strain MS; CPE inhibition in HFF cells", "value": 0.225, "unit": "µg/mL"},
      {"measurement": "Qualitative CPE at 2.0 ml dose HSV-2 MS", "setting": "HSV-2 strain MS; [9]", "value": "++"},
      {"measurement": "EC50", "setting": "HSV-2 strain MS; Human alphaherpesvirus 2, HFF, CPE inhibition in HFF cells, read-out: EC50 HSV-2 MS", "value": "~0.225", "unit": "µg/mL"}
    ]}
  ]
}
